In patent US10287267B2, “Isoquinolin-3-yl carboxamides and preparation and use thereof” (Samumed, LLC, priority 2016, dated 2019):
pEC50: −log10 of the molar value.

Legend:
[1] = test system: SW480 colon carcinoma cells; assay: Cell viability assay (CellTiter-Glo); type: cell-based, human; conditions: Homo sapiens, 96 h; SW480 cells, CellTiter-Glo, four days incubation
[2] = molecular target: recombinant DYRK1A kinase (Homo sapiens (Human), UniProt Q13627); assay: DYRK1A kinase assay (Ser/Thr 18 peptide Z-lyte FRET); type: biochemical; conditions: 30 μM ATP, 1 h room temperature;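 further: Read-out is the coumarin to fluorescein emission ratio, referenced to unphosphorylated (0%) and phosphorylated (100%) Ser/Thr 18 peptide controls, values from dose-response curves by non-linear regression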
[3] = test system: α-smooth muscle actin (αSMA) positive LL29 cells; assay: Inhibition of fibrotic process: αSMA in TGF-β1 treated primary human fibroblasts from IPF patients; type: cell-based; conditions: Homo sapiens, Fibroblast; for pEC50: 96 h, Table 8, LL29 fibroblasts from IPF patients, TGF-β1 20 ng/mL, 4 days, dose-response 10 μM to 0.94 nM; for inhibition at 10 µM: read-out: percent value in parentheses beside EC50 >10 μM;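 on all read-outs here: controls were TGF-β1 stimulated wells with DMSO vehicle (positive) and cells given DMSO alone (negative), cultured in F12 medium with 1% fetal bovine serum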
[4] = test system: Tau phosphorylation at Ser396 (pSer396); assay: Tau phosphorylation assay (pSer396 ELISA / western blot) in SH-SY5Y cells; type: cell-based, human; conditions: Homo sapiens; SH-SY5Y cells, overnight (16-18 h) exposure; read-out: pSer396 Tau EC50;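 further: EC50 for reduction of Tau pSer396 in lysed cells, measured by colorimetric ELISA or chemiluminescent western blot, both using the same pSer396 antibody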
[5] = test system: Wnt pathway (Sp5-Luc reporter, TCF/LEF binding sites) in SW480 colon carcinoma cells; assay: Screening assay for Wnt activity: Sp5-Luc reporter gene assay; type: cell-based, human; conditions: Homo sapiens; Sp5-Luc reporter, SW480 cells, 36 to 48 hours;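 further: firefly luciferase luminescence read in stably transduced SW480 cells carrying the Sp5 promoter reporter with eight TCF/LEF sites, compounds given in 0.1% DMSO final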
Method: The screening assay for Wnt activity is described as follows.
Following incubation, 15 μl of BriteLite Plus luminescence reagent (Perkin Elmer) was added to each well of the 384-well assay plates. The plates were placed on an orbital shaker for 2 min and then luminescence was quantified using the Envision (Perkin Elmer) plate reader.

recombinant GSK3β kinase = recombinant GSK3β kinase (Homo sapiens (Human), UniProt P49841); assay: GSK3β kinase assay (Ser/Thr 09 peptide Z-lyte FRET); type: biochemical; conditions: 46 μM ATP, 1 h room temperature;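 further: kinase activity read as coumarin to fluorescein emission ratio, 11-point threefold dilutions from 10 µM to 0.0003 µM in duplicate, unphosphorylated and phosphorylated peptide as 0% and 100% controls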
recombinant GSK3β kinase, sequence (P49841 whole entry): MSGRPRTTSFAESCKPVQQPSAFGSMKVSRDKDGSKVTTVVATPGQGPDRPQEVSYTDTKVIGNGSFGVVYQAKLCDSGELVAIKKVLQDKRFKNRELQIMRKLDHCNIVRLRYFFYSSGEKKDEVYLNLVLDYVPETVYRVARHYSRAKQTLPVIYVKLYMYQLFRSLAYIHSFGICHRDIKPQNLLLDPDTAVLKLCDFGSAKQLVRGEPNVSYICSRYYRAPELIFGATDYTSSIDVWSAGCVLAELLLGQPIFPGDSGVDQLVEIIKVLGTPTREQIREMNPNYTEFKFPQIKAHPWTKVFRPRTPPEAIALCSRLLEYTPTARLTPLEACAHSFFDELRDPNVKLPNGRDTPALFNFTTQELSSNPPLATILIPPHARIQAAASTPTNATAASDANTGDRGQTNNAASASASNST

IL-6 = IL-6 inhibition in LPS-stimulated human peripheral blood mononuclear cells (HTRF); type: cell-based; conditions: Homo sapiens, PBMC; for inhibition at 10 µM: read-out: percent value in parentheses beside EC50 >10 μM; for pEC50: Table 9, huPBMCs, LPS 50 ng/mL, 22 hours, dose-response starting from 10 μM;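 on all read-outs here: IL-6 detected by HTRF with an XL665- and Cryptate-labelled anti-IL-6 antibody pair, samples run in duplicate, EC50 obtained from a four-parameter Levenberg-Marquardt curve fit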
Method: After 22 hour incubation, a mixture of anti-IL6 XL665 and anti-IL-6 Cryptate diluted in reconstitution buffer (Catalog #62IL6PEC, Cisbio Inc., Bedford, Mass.) was added to each well. […] All samples were processed in duplicate. […] EC50 was determined using software generated by Dotmatics Limited (Windhill Bishops Stortford Herts, UK) using the Levenberg-Marquardt 4 parameter fitting procedure with finite different gradients.

Compound	pEC50 [1]	pEC50 [2]	pEC50 [3]	inhibition at 10 µM [3]	pEC50 [4]	pEC50 [5]	pEC50 (recombinant GSK3β kinase)	inhibition at 10 µM (IL-6)	pEC50 (IL-6)
CN(CC(=O)Nc1cc2cc(-c3cnc4n3CCNC4)ccc2cn1)C1CCC1 [Compound 1031, 2-(Cyclobutyl(methyl)amino)-N-(6-(5,6,7,8-tetrahydroimidazo[1,2-a]pyrazin-3-yl)isoquinolin-3-yl)acetamide]	5.41	7.15	< 5.00	39.2%	6.01	5.40	6.42	2%	< 5.00
CN1CCCN(CC(=O)Nc2cc3cc(-c4cnn(C)c4)ccc3cn2)CC1 [Compound 1012, 2-(4-Methyl-1,4-diazepan-1-yl)-N-(6-(1-methyl-1H-pyrazol-4-yl)isoquinolin-3-yl)acetamide]	5.50	7.89	< 5.00	10.2%	6.26	5.57	6.81	–	5.51
C[C@@H](C(=O)Nc1cc2cc(-c3cnn(C)c3)ccc2cn1)N1CCCC1 [Compound 317, (S)—N-(6-(1-Methyl-1H-pyrazol-4-yl)isoquinolin-3-yl)-2-(pyrrolidin-1-yl) propanamide]	5.20	7.43	6.76	–	6.70	5.90	7.52	–	5.72
CN1CCN(CC(=O)Nc2cc3cc(-c4cnco4)ccc3cn2)CC1 [Compound 983, 2-(4-Methylpiperazin-1-yl)-N-(6-(oxazol-5-yl)isoquinolin-3-yl)acetamide]	5.34	7.65	6.17	–	5.82	5.26	6.52	9.1%	< 5.00
Cc1nnc(-c2ccc3cnc(NC(=O)CN4CCOCC4)cc3c2)s1 [Compound 952, N-(6-(5-Methyl-1,3,4-thiadiazol-2-yl)isoquinolin-3-yl)-2-morpholinoacetamide]	5.15	8.14	6.13	–	6.57	5.83	8.10	10.1%	< 5.00
CC(C(=O)Nc1cc2cc(-c3cncs3)ccc2cn1)N1CCCC1 (centres unmarked) [Compound 758, 2-(Pyrrolidin-1-yl)-N-(6-(thiazol-5-yl)isoquinolin-3-yl)propanamide]	5.87	7.61	6.58	–	6.42	5.90	7.30	–	5.54
Cn1cc(-c2ccc3cnc(NC(=O)C4CC5(C4)CN(C(=O)C(F)(F)F)C5)cc3c2)cn1 [Compound 325, N-(6-(1-Methyl-1H-pyrazol-4-yl)isoquinolin-3-yl)-2-(2,2,2-trifluoroacetyl)-2-azaspiro[3.3]heptane-6-carboxamide]	6.28	8.68	5.88	–	6.36	6.26	8.52	–	6.45
COCCN1CCC(C(=O)Nc2cc3cc(-c4cnn(C)c4)ccc3cn2)CC1 [Compound 89, 1-(2-Methoxyethyl)-N-(6-(1-methyl-1H-pyrazol-4-yl)isoquinolin-3-yl) piperidine-4-carboxamide]	6.13	8.57	6.86	–	6.44	6.12	7.19	–	5.94
CC(C)CN1CCN(CC(=O)Nc2cc3cc(-c4cnn(C)c4)ccc3cn2)CC1 [Compound 272, 2-(4-Isobutylpiperazin-1-yl)-N-[6-(1-methylpyrazol-4-yl)-3-isoquinolyl]acetamide]	5.23	7.85	5.59	–	5.78	5.43	6.98	–	5.51
Cn1cc(-c2ccc3cnc(NC(=O)C4CCC(F)(F)CC4)cc3c2)nn1 [Compound 441, 4,4-Difluoro-N-(6-(1-methyl-1H-1,2,3-triazol-4-yl)isoquinolin-3-yl) cyclohexane-1-carboxamide]	5.28	8.04	7.24	–	7.14	5.92	8.30	–	5.47
Cn1cc(-c2ccc3cnc(NC(=O)C4CNC4)cc3c2)cn1 [Compound 16, N-(6-(1-Methyl-1H-pyrazol-4-yl)isoquinolin-3-yl)azetidine-3-carboxamide]	5.11	8.41	5.90	–	< 5.00	< 5.00	7.62	–	5.66
CN1CCN(C(=O)Nc2cc3cc(-c4cnn(C)c4)ccc3cn2)CC1 [Compound 316, 4-Methyl-N-(6-(1-methyl-1H-pyrazol-4-yl)isoquinolin-3-yl)piperazine-1-carboxamide]	5.63	8.38	5.97	–	5.06	5.55	6.29	–	6.40
Cn1cc(-c2ccc3cnc(NC(=O)CN4CCC(F)CC4)cc3c2)cn1 [Compound 116, 2-(4-Fluoropiperidin-1-yl)-N-(6-(1-methyl-1H-pyrazol-4-yl)isoquinolin-3-yl)acetamide]	5.19	8.37	6.08	–	6.06	5.15	7.62	–	5.87
CN1CCC(N2CCC(C(=O)Nc3cc4cc(-c5cncs5)ccc4cn3)CC2)CC1 [Compound 743, 1′-Methyl-N-(6-(thiazol-5-yl)isoquinolin-3-yl)-[1,4′-bipiperidine]-4-carboxamide]	5.81	8.89	6.35	–	6.36	5.02	7.20	–	5.95
[2H]C([2H])([2H])n1cc(-c2ccc3cnc(NC(=O)C4CCN(CCC(F)(F)F)CC4)cc3c2)cn1 [Compound 304, N-(6-(1-(Methyl-d3)-1H-pyrazol-4-yl)isoquinolin-3-yl)-1-(3,3,3-trifluoropropyl)piperidine-4-carboxamide]	5.87	8.57	6.82	–	6.68	5.64	7.54	–	5.94
Cn1cc(-c2ccc3cnc(NC(=O)C4CCN(CC(=O)OC(C)(C)C)CC4)cc3c2)cn1 [Compound 1010, tert-Butyl 2-(4-((6-(1-methyl-1H-pyrazol-4-yl)isoquinolin-3-yl)carbamoyl)piperidin-1-yl)acetate]	5.40	8.59	6.99	–	6.21	5.69	7.28	–	5.93
O=C(Nc1cc2cc(-c3cnc4n3CCNC4)ccc2cn1)C1CC1 [Compound 265, N-(6-(5,6,7,8-Tetrahydroimidazo[1,2-a]pyrazin-3-yl)isoquinolin-3-yl) cyclopropanecarboxamide]	5.36	8.43	5.59	–	6.18	5.91	8.15	–	5.52
Cn1cc(-c2ccc3cnc(NC(=O)[C@@H]4CCCCN4)cc3c2)cn1 [Compound 340, (S)—N-(6-(1-Methyl-1H-pyrazol-4-yl)isoquinolin-3-yl)piperidine-2-carboxamide]	5.65	8.72	6.38	–	5.64	6.03	6.59	–	6.25
